pIC50: −log10 of the molar value. Values joined by “and” are separate entries in the source; they are usually repeats but may differ in a detail not shown here. Identical values can stand only once. “Also recorded” adds a separate entry of the source. Counter-ions that a name gives are not always drawn. Like-named read-outs stand apart in the source and are kept apart here.
Columns and labels:
K562 cells [1] = assay: Doxorubicin intracellular accumulation assay (flow cytometry), K562; assay type: cell-based, human; details: up to the maximum concentration evaluated
From the text: […]. […] Viability controls were included in all the experiments.

Lucena 1 cells [2] = assay: Reversal assay (MTT) with VLB; assay type: cell-based, human
Protocol: Subsequently, the supernatants were removed and replaced with 100 μL DMSO to solubilize the resulting purple formazan crystals produced from metabolically viable cells.
The same reversal assay was performed in K562 cells, in order to discard a decrease in the IC50 of DOX due to effects other than P-gp inhibition.

K562 cells [3] = assay: Reversal assay (MTT) with VLB, sensitive parental line; assay type: cell-based, human
Lucena 1 cells [4] = assay: Multidrug resistance reversal assay (MTT) with DOX; assay type: cell-based, human; details: for Effect on DOX toxicity in Lucena 1: compound at highest non-toxic concentration (Table 1)
Protocol: (§1) Briefly, 5 × 10^4 Lucena 1 cells per well were seeded in 96-well plates containing RPMI-1640 medium in the presence of DOX alone or in combination with the tested compounds dissolved in ethanol or acetonitrile as appropriate. DOX was added to reach final concentrations of 0.05–431 μM. The compounds were assayed at the highest non-toxic concentration observed in both cell lines (cytotoxicity ≤ 20%, Cytotoxicity (%) = [1-(Optical density treatment-Optical density DMSO)/(Optical density control-Optical density DMSO)] x 100, determined by MTT proliferation assay (Joray et al., [2015]); maximum concentration tested 40 μg mL^−1). Following the primary screening, compounds 14 and 16 (dissolved in ethanol) were tested at serial dilutions. […] Subsequently, the supernatants were removed and replaced with 100 μL DMSO to solubilize the resulting purple formazan crystals produced from metabolically viable cells. Absorbance was measured with an iMark micro-plate reader (Bio-Rad, USA) at 595 nm.
(§2) The same reversal assay was performed in K562 cells, in order to discard a decrease in the IC50 of DOX due to effects other than P-gp inhibition. The reversal fold (RF) values for the tested compounds, which indicate their capacity to reduce resistance to DOX, were calculated by dividing the IC50 of DOX alone by the IC50 of DOX in the presence of the tested compounds (Xu et al., [2014]).

P-gp [5] = assay: Surface expression of P-gp (FITC anti-human P-gp, flow cytometry), Lucena 1; assay type: cell-based; details: 14 at 112 μM, 48 h
Protocol: (§3) To determine the effect of 14 on P-gp surface expression, Lucena 1 or K562 cells at a density of 5 × 10^4 cells mL^−1 were incubated in the presence of 14, dissolved in ethanol at 112 μM (maximum non-cytotoxic concentration, in order to ensure the presence of the effect) or 1% ethanol (control) for 24 and 48 h. Then, cells were washed with cold PBS and labeled for 30 min at 4°C in the dark with FITC-conjugated mouse anti-human P-gp antibody, which binds to an external epitope of P-gp, according to the manufacturer's instructions. Finally, cells were washed and suspended with ice-cold PBS and fluorescence intensity was determined in 10,000 individual cells by FACScan flow cytometry. FITC fluorescence was measured at an excitation wavelength of 488 nm and emitted light was collected with a 530/30 nm bandpass filter.

K562 cells [6] = assay: Doxorubicin efflux assay (flow cytometry), K562; assay type: cell-based, human; details: 14 at 112 μM, verapamil 30 μM
Protocol: Cells were then washed with ice-cold PBS and the intracellular DOX-associated MFI of 50,000 individual cells was determined by flow cytometry as previously described.

P-gp [7] = biological target: T1, P-gp (Homo sapiens, UniProt P08183); assay: P-gp ATPase activity ([…] ATPase assay kit, Sf9 membranes); assay type: biochemical; parameters: host or cells: Spodoptera frugiperda Sf9 cells (membrane preparation); details: for Maximum stimulation of P-gp-ATPase activity: activation assay, at 66.7 μM, relative to maximum activation by verapamil
Protocol: The ATPase reaction was subsequently stopped and the inorganic phosphate (Pi) produced was measured colorimetrically at 630 nm.
All experiments were performed in the absence or presence of 1.2 mM of sodium orthovanadate, an ABC transporter-related ATPase inhibitor, in order to measure the vanadate-sensitive portion of the total ATPase activity. […] Membranes from Sf9 cells expressing defective P-gp were used as controls.

P-gp [8] = assay: Surface expression of P-gp (FITC anti-human P-gp, flow cytometry), K562; assay type: cell-based; details: 14 at 112 μM, 24 and 48 h
Protocol: as §3

K562 cells [9] = assay: Rhodamine 123 efflux assay (flow cytometry), K562; assay type: cell-based, human; details: 14 at 112 μM
Protocol: Rho 123, a P-gp fluorescent substrate, is frequently employed as an indicator of P-gp activity and it was therefore used in an additional efflux study. […] Subsequently, cells were incubated with 500 ng mL^−1 of Rho 123 for 30 min. […] After washing twice with cold PBS, the amount of Rho 123 remaining in 10,000 individual cells after the efflux period was quantified by FACScan flow cytometry. Excitation was performed with a laser operating at 488 nm and the emitted fluorescence was collected through a 530/30 nm pass filter.

P-gp [10] = biological target: T1, P-gp; assay: Doxorubicin efflux assay (flow cytometry); assay type: cell-based; parameters: Lucena 1 was chosen as a well-characterized resistant cell line in which P-gp overexpression is the exclusive mechanism of acquired resistance; endogenous in cells; host or cells: Lucena 1 (drug-selected, P-gp overexpressing) and parental K562 human CML cells; details: Lucena 1
Protocol: […]. […] After washing, cells were incubated for 30 min with 14. […] Cells were then washed with ice-cold PBS and the intracellular DOX-associated MFI of 50,000 individual cells was determined by flow cytometry as previously described.

P-gp [11] = biological target: T1, P-gp; details: Lucena 1; for % of inhibition related to verapamil (DOX accumulation): 112 μM
P-gp [12] = biological target: T1, P-gp; assay: Rhodamine 123 efflux assay (flow cytometry); assay type: cell-based; parameters: Lucena 1 was chosen as a well-characterized resistant cell line in which P-gp overexpression is the exclusive mechanism of acquired resistance; endogenous in cells; host or cells: Lucena 1 (drug-selected, P-gp overexpressing) and parental K562 human CML cells; details: Lucena 1; 14 at 112 μM; 30 min efflux
K562 cells [13] = assay: Multidrug resistance reversal assay (MTT) with DOX, sensitive parental line; assay type: cell-based, human; details: for Effect on DOX sensitivity in K562: compound at highest non-toxic concentration (Table 1)
Protocol: as §1, §2

P-gp [14] = test system: P-gp; parameters: method as in Tamaki et al., 2008; details: applied at 50 and 100 μM; ref Tamaki et al., 2008; cited from earlier work
[15] = test system: KB-C2 cells overexpressing P-gp; parameters: method as in Nabekura et al., 2008; details: ref Nabekura et al., 2008; cited from earlier work
[16] = 14 at 112 μM, verapamil as reference

T1 sequence (P08183 whole entry): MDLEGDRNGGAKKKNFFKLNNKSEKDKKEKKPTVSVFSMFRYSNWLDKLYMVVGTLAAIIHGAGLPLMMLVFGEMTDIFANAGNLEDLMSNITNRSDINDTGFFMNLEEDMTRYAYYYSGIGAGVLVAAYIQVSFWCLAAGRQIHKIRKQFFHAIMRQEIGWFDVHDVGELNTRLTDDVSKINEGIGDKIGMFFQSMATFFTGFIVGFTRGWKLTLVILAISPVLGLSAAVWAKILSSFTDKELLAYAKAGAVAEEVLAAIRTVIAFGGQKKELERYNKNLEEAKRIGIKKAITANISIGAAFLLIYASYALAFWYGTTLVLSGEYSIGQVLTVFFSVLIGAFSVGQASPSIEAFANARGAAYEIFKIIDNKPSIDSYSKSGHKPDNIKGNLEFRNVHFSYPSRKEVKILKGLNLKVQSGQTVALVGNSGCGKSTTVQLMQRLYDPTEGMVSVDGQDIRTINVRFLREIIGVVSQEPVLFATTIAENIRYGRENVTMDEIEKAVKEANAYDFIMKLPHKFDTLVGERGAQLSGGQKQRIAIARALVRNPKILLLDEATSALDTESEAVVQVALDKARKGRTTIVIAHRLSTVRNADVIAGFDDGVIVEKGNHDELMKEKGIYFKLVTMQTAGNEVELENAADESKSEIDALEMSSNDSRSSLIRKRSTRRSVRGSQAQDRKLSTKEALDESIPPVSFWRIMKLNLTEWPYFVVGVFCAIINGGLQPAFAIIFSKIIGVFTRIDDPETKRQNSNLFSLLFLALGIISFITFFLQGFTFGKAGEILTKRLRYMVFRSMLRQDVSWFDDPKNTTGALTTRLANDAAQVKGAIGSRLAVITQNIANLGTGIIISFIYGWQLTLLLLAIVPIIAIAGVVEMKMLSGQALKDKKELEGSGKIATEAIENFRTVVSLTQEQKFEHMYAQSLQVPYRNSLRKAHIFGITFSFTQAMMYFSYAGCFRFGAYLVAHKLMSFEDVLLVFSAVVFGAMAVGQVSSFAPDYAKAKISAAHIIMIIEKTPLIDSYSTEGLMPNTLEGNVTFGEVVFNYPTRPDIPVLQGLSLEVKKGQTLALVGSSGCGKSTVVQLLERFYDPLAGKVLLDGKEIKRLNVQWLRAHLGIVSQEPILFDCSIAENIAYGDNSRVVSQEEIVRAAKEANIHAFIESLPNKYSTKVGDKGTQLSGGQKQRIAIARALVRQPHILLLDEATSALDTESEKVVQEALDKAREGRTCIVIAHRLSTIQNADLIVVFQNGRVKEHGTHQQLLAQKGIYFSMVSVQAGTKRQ
T1 sequence (P08183 whole entry): as above

## COc1ccc(CCN(C)CCCC(C#N)(c2ccc(OC)c(OC)c2)C(C)C)cc1OC (stereo not drawn) [Verapamil, Verapamil hydrochloride, reference compound]
K562 cells [1]
  DOX accumulation in K562: No such increase in MFI

## CC[C@]1(O)C[C@@H]2CN(CCc3c([nH]c4ccccc34)[C@@](C(=O)OC)(c3cc4c(cc3OC)N(C)[C@H]3[C@@](O)(C(=O)OC)[C@H](OC(C)=O)[C@]5(CC)C=CCN6CC[C@]43[C@@H]65)C2)C1 [VLB, vinblastine sulfate, reference compound]
Lucena 1 cells [2]; Homo sapiens, VLB alone
  pIC50: 5.60
K562 cells [3]; Homo sapiens, VLB alone
  pIC50: 6.62

## O=c1cc(-c2ccc(O)cc2)oc2cc(O)cc(O)c12 [Compound 10, apigenin]
Lucena 1 cells [4]
  Effect on DOX toxicity in Lucena 1: did not cause any effect in DOX toxicity

## (±)-pinoresinol [Compound 14]
P-gp [5]
  P-gp expression at the membrane surface vs control: less P-gp at the Lucena 1 cell membrane; also recorded: lower
K562 cells [6]
  Effect on DOX efflux in K562: Neither 14 nor verapamil showed any significant effect
P-gp [7]
  Maximum stimulation of P-gp-ATPase activity: 29.49 ± 4.55%
P-gp [7]; listed as pinoresinol
  Maximum stimulation of P-gp-ATPase activity: 29%
P-gp [7]; membranes from Sf9 cells expressing defective P-gp, up to 600 μM
  Effect on ATPase activity of control membranes: no effect
P-gp [8]
  P-gp presence in the outer membrane: No suppression of P-gp presence
K562 cells [1]
  DOX accumulation in K562: No such increase in MFI
Lucena 1 cells [2]; [16]
  Reversal fold (RF) to VLB: 60 and 60.20
Lucena 1 cells [4]; Lucena 1, DOX
  Minimum effective concentration (MEC) in the reversal assay (potentiation of DOX toxicity from): 7 µM
Lucena 1 cells [4]; compound at 28 μM (serial dilution), DOX
  RF Lucena 1: 3.4
K562 cells [9]
  Rho 123-associated MFI in K562: did not induce any increase
P-gp [10]; 14 at 112 μM, 30 min in DOX-free medium
  Increase in DOX-associated MFI (retention) vs control in efflux assay: 1.8 fold
P-gp [10]; 30 min efflux
  Minimum effective concentration (MEC) in the DOX efflux assay: 56 µM
P-gp [11]; 0 h pre-incubation
  % of inhibition related to verapamil (DOX accumulation): 60%
P-gp [11]; 0.5 h pre-incubation
  % of inhibition related to verapamil (DOX accumulation): 73%
P-gp [11]; 1 h pre-incubation, verapamil 30 μM = maximum inhibition
  % of inhibition related to verapamil (DOX accumulation): 79%
P-gp [11]; 48 h pre-incubation
  % of inhibition related to verapamil (DOX accumulation): 55%
P-gp [11]; 14 at 56 μM (MEC)
  % inhibition with respect to verapamil (DOX accumulation): 80%
P-gp [11]; 14 at 112 μM, at 20 min, compared with MFI in K562
  Time course of DOX accumulation: fully restored the presence of DOX within Lucena 1 cells
P-gp [11]; 1 h pre-incubation, 5 μM DOX 1 h
  Minimum effective concentration (MEC) in the DOX accumulation assay: 56 µM
P-gp [11]; 1 h with 14, then 1 h DOX
  Type of P-gp inhibition (Lineweaver-Burk double reciprocal plot of DOX retention): competitive inhibitor
P-gp [11]; 48 h pre-incubation, 14 at 112 μM, verapamil 30 μM, 5 μM DOX 1 h
  Increase in DOX-associated MFI vs ethanol control: 1.4 fold
P-gp [11]; no pre-incubation (0 h), 14 at 112 μM, verapamil 30 μM, 5 μM DOX 1 h
  Increase in DOX accumulation (MFI) vs ethanol control: 1.3 fold
K562 cells [3]; [16]
  Reversal fold (RF) to VLB: 9 and 9.63
P-gp [12]
  Enhancement of intracellular Rho 123 intensity in efflux assay: 1.5 fold
K562 cells [13]
  Effect on DOX sensitivity in K562: did not increase DOX sensitivity

## CC1(C)C=Cc2c(cc3c(c2O)C(=O)CC(c2ccc(O)cc2O)O3)O1 (stereo not drawn) [Compound 9, dalenin]
K562 cells [13]
  Effect on DOX sensitivity in K562: caused a decrease in DOX IC50

## O=c1c(O)c(-c2ccc(O)c(O)c2)oc2cc(O)cc(O)c12 [Compound 11, quercetin]
Lucena 1 cells [4]
  Effect on DOX toxicity in Lucena 1: decreased DOX sensitivity

## O=C(/C=C/c1ccccc1)c1ccc(O)cc1O [Compound 6, 2′,4′-dihydroxychalcone]
K562 cells [13]
  Effect on DOX sensitivity in K562: caused a decrease in DOX IC50

## (+)-pinoresinol [14 (+)-pinoresinol]
P-gp [14]
  Intracellular accumulation of calcein-AM: increased the intracellular accumulation of calcein-AM

## (-)-sesamin
[15]
  Concentration from which accumulation of daunorubicin increased: 50 µM

## COc1cccc2c1C(=O)c1c(O)c3c(c(O)c1C2=O)C[C@@](O)(C(=O)CO)C[C@@H]3O[C@H]1C[C@H](N)[C@H](O)[C@H](C)O1 [DOX, Doxorubicin hydrochloride, reference compound]
Lucena 1 cells [4]; Homo sapiens, Lucena 1, MTT 48 h, 95% confidence limits in brackets, read-out: IC50 of DOX alone
  pIC50: 4.39
Lucena 1 cells [4]; ratio of DOX IC50 values
  Resistance of Lucena 1 to DOX relative to K562: 35 fold
K562 cells [13]; Homo sapiens, K562, MTT 48 h, 95% confidence limits in brackets, read-out: IC50 of DOX alone
  pIC50: 5.94

## O=C1C[C@@H](c2ccc(O)cc2)Oc2cc(O)cc(O)c21 [Compound 8, naringenin]
Lucena 1 cells [4]
  Effect on DOX toxicity in Lucena 1: did not cause any effect in DOX toxicity

From paper PMC5403950, “Mechanism Underlying the Reversal of Drug Resistance in P-Glycoprotein-Expressing Leukemia Cells by Pinoresinol and the Study of a Derivative” (Frontiers in Pharmacology, 2017)
